Data from ChEMBL document CHEMBL5550154, “Novel biaryloxazolidinone derivatives with broad-spectrum antibacterial activity, favorable drug-like profiles and in vivo efficacy against linezolid-resistant Staphylococcusaureus” (Eur J Med Chem, 2024).
≈ marks a conversion by molar mass, not a printed value. Calls of active or inactive are those of the source. The rule behind the calls is not given here.

What was measured:
[1] = Clearance in Sprague-Dawley rat at 1 mg/kg, iv measured upto 24 hrs by LC-MS analysis; format: ADME, organism-based; conditions: in vivo
[2] = Plasma protein binding in monkey incubated for 6 hrs by LC-MS/MS analysis; format: ADME, cell-free, Macaca mulatta; conditions: rhesus monkey, read-out: PPB (converted)
[3] = Microsomal stability in monkey liver microsomes assessed as elimination half life pretreated with compound upto 60 mins followed by NADPH addition and measured after 60 mins by LC/MS analysis; format: ADME, Macaca mulatta, Microsome; conditions: rhesus monkey, time < 120 min, read-out: beta t1/2
[4] = Elimination half life in Sprague-Dawley rat at 10 mg/kg, IG measured upto 24 hrs by LC-MS analysis; format: ADME, organism-based; conditions: in vivo, po, read-out: beta t1/2 (converted)
[5] = Microsomal stability in mouse liver microsomes assessed as elimination half life pretreated with compound upto 60 mins followed by NADPH addition and measured after 60 mins by LC/MS analysis; format: ADME, Microsome; conditions: time < 120 min; for half-life: liver microsomes, read-out: beta t1/2
[6] = Aqueous solubility of compound at pH 7.4 by LC-MS/MS analysis; format: physicochemical; conditions: buffer
[7] = target: T1, Amine oxidase [flavin-containing] A (Homo sapiens, UniProt P21397); assay: Inhibition of MAO-A (unknown origin) preincubated with compound for 15 mins followed by substrate addition and measured after 60 mins by luminescence based microplate reader analysis; format: toxicity
T1 sequence (P21397 whole entry): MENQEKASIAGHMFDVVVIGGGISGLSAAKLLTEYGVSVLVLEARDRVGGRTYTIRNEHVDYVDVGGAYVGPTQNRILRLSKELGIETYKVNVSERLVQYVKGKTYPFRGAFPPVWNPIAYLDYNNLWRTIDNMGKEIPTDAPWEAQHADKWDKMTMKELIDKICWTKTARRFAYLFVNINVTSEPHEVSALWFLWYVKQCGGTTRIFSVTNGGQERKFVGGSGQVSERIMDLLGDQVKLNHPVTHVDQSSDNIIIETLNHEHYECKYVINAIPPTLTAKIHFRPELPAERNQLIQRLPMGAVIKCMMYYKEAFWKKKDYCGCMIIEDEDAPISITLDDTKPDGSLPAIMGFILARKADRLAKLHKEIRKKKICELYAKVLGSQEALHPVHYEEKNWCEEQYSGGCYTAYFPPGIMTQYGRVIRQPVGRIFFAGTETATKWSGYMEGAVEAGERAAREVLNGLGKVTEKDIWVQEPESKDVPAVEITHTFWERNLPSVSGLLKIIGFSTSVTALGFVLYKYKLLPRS

[8] = Apparent permeability across apical to basolateral side in human Caco-2 cells; format: ADME, cell-based
[9] = Stability in mouse plasma assessed as parent compound remaining at 37 degreeC measured upto 60 mins by HPLC analysis; format: ADME, cell-free; conditions: read-out: Stability
[10] = Efflux ratio of apparent permeability across […] side in human Caco-2 cells; format: ADME, cell-based
[11] = Elimination half life in Sprague-Dawley rat at 1 mg/kg, iv measured upto 24 hrs by LC-MS analysis; format: ADME, organism-based; conditions: in vivo, read-out: beta t1/2 (converted)
[12] = Stability in monkey plasma assessed as parent compound remaining at 25 degreeC measured upto 60 mins by HPLC analysis; format: ADME, cell-free, Macaca mulatta; conditions: rhesus monkey; for remaining at 1 h: read-out: Stability
Staphylococcus aureus [13] = assay: Antibacterial activity against Staphylococcus aureus ATCC29213 assessed as inhibition of bacterial growth incubated for 16 to 20 hrs by CLSI based broth liquid microdilution method; format: functional; conditions: time 16-20 hrs
[14] = Microsomal stability in dog liver microsomes assessed as parent compound remaining pretreated with compound upto 60 mins followed by NADPH addition and measured after 60 mins by LC/MS analysis; format: ADME, Canis lupus familiaris, Microsome; conditions: time < 120 min, read-out: Stability
[15] = Bioavailability in Sprague-Dawley rat at 10 mg/kg, IG measured upto 24 hrs by LC-MS analysis; format: ADME, organism-based; conditions: in vivo, po
Staphylococcus aureus [16] = assay: Antibacterial activity against linezolid-resistant Staphylococcus aureus assessed as inhibition of bacterial growth incubated for 16 to 20 hrs by CLSI based broth liquid microdilution method; format: functional; conditions: time 16-20 hrs
[17] = Half life in ICR mouse at 10 mg/kg, IG measured upto 24 hrs by LC-MS analysis; format: ADME, organism-based; conditions: in vivo, po
[18] = Microsomal stability in dog liver microsomes assessed as intrinsic clearance pretreated with compound upto 60 mins followed by NADPH addition and measured after 60 mins by LC/MS analysis; format: ADME, Canis lupus familiaris, Microsome; conditions: time < 120 min; for microsomal CLint: liver microsomes, read-out: CLH
Staphylococcus aureus [19] = assay: Antibacterial activity against Linezolid-resistant Staphylococcus aureus infected in systemic infection IG dosed SPF-kunming mouse model assessed as survival rate measured every day for 7 days; format: functional, organism-based; conditions: dose 2.5-40 mg/kg, time 7.0 day
[20] = Microsomal stability in monkey liver microsomes assessed as parent compound remaining pretreated with compound upto 60 mins followed by NADPH addition and measured after 60 mins by LC/MS analysis; format: ADME, Macaca mulatta, Microsome; conditions: rhesus monkey, time < 120 min, read-out: Stability
[21] = Volume of distribution at steady state in ICR mouse at 1 mg/kg, iv measured upto 24 hrs by LC-MS analysis; format: ADME, organism-based; conditions: in vivo, read-out: Vdss
Staphylococcus aureus [22] = assay: Antibacterial activity against methicillin-resistant Staphylococcus aureus assessed as inhibition of bacterial growth incubated for 16 to 20 hrs by CLSI based broth liquid microdilution method; format: functional; conditions: time 16-20 hrs
[23] = Stability in rat plasma assessed as parent compound remaining at 25 degreeC measured upto 60 mins by HPLC analysis; format: ADME, cell-free; conditions: for remaining at 1 h: read-out: Stability
Cytochrome P450 2C19 = Cytochrome P450 2C19 (Homo sapiens, UniProt P33261); assay: Inhibition of CYP2C19 in human liver microsomes […] preincubated with compound for 5 mins followed by substrate addition and measured after 120 mins in presence of NADPH by LC-MS/MS analysis; format: ADME, Microsome
[24] = Stability in monkey plasma assessed as parent compound remaining at 37 degreeC measured upto 60 mins by HPLC analysis; format: ADME, cell-free, Macaca mulatta; conditions: rhesus monkey, read-out: Stability
[25] = AUC (0 to t) in Sprague-Dawley rat at 10 mg/kg, IG measured upto 24 hrs by LC-MS analysis; format: ADME, organism-based; conditions: in vivo, po
[26] = Microsomal stability in human liver microsomes assessed as intrinsic clearance pretreated with compound upto 60 mins followed by NADPH addition and measured after 60 mins by LC/MS analysis; format: ADME, Microsome; conditions: time < 120 min, read-out: CLH
[27] = AUC (0 to t) in ICR mouse at 1 mg/kg, iv measured upto 24 hrs by LC-MS analysis; format: ADME, organism-based; conditions: in vivo
[28] = Microsomal stability in human liver microsomes assessed as parent compound remaining pretreated with compound upto 60 mins followed by NADPH addition and measured after 60 mins by LC/MS analysis; format: ADME, Microsome; conditions: time < 120 min; for remaining at 2 h: liver microsomes, read-out: Stability
[29] = AUC (0 to t) in Sprague-Dawley rat at 1 mg/kg, iv measured upto 24 hrs by LC-MS analysis; format: ADME, organism-based; conditions: in vivo
Staphylococcus aureus [30] = assay: Antibacterial activity against methicillin-sensitive Staphylococcus aureus assessed as inhibition of bacterial growth; format: functional
Staphylococcus aureus [31] = assay: Antibacterial activity against Linezolid-resistant Staphylococcus aureus infected in systemic infection SPF-kunming mouse model assessed as survival rate at 10 to 40 mg/kg, IG measured 3 days after infection; format: functional, organism-based; conditions: dose 10-40 mg/kg
[32] = Stability in simulated gastric acid assessed as compound remaining at pH 1.3 measured at 1.5 hrs; format: ADME; conditions: read-out: Stability

Sequence of Cytochrome P450 2C19 (P33261 whole entry): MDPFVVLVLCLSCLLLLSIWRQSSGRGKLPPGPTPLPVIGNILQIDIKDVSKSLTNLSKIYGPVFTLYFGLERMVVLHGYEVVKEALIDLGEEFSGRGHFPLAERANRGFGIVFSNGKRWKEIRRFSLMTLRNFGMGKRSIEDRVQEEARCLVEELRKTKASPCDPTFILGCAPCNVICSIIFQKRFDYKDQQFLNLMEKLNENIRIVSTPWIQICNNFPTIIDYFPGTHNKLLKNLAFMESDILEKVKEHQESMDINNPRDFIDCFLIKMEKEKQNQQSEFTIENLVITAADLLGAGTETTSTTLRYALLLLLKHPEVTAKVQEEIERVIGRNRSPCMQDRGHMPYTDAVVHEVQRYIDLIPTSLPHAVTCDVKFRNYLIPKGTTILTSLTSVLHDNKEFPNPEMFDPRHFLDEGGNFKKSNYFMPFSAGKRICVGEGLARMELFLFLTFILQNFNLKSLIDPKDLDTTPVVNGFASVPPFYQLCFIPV

Row | Structure (SMILES) | clearance [1] [mL/min/kg] | fraction unbound at 6 h [2] | half-life [3] [h] | half-life [4] [h] | half-life [5] [h] | solubility [6] [µM] | remaining at 1 h [9] [%] | half-life [11] [h] | remaining at 1 h [12] [%] | MIC (Staphylococcus aureus [13]) [µg/mL] | remaining at 2 h [14] [%] | bioavailability [15] [%] | MIC (Staphylococcus aureus [16]) [µg/mL] | microsomal CLint [18] [µL/min/mg] | remaining at 2 h [20] [%] | Vd [21] [L/kg] | IC50 (Cytochrome P450 2C19) [µM] | remaining at 1 h [24] [%] | AUC(0-t) at 24 h [25] [ng·h/mL] | AUC(0-t) at 24 h [29] [ng·h/mL] | other results
1 | O=C1O[C@@H](CO)CN1c1ccc(-c2ccc(/C=N/N3CCOCC3)nc2)c(F)c1 | 14 | 0.215 | 7.78 | 1.49 | 12.2 | 10.9 (≈ 4.36 µg/mL) | 98.3 | 0.8 | 113 | 0.06 (≈ 0.15 µM) | 96.8 | 68.1 | 0.125 (≈ 0.312 µM) | 1.51 | 93.3 | 0.87 | > 30 | 103 | 8310 | 1220 | IC50 [7]: 5.64 µM; Papp A→B [8]: 36.7 ×10⁻⁶ cm/s; Ratio [10]: 0.61; half-life [17]: 2.85 h; Activity (Staphylococcus aureus [19]): Dose-Dependent Effect; MIC (Staphylococcus aureus [22]): 0.125 µg/mL (≈ 0.312 µM); remaining at 1 h [23]: 116%; microsomal CLint [26]: 12.7 µL/min/mg; AUC(0-t) at 24 h [27]: 2640 ng·h/mL; remaining at 2 h [28]: 66.2%
2 | CC(=O)NC[C@H]1CN(c2ccc(N3CCOCC3)c(F)c2)C(=O)O1 [LINEZOLID] | 24.7 | 0.745 | 51.8 | 1.08 | 10.6 |  | 105 | 0.41 | 99.4 |  | 97.8 |  |  | 0.667 | 99.4 | 0.56 | > 30 | 105 | 13000 | 719 | IC50 [7]: 20 µM; MIC (Staphylococcus aureus [30]): 1 µg/mL (≈ 2.96 µM); half-life [17]: 0.8 h; remaining at 1 h [23]: 99.2%; AUC(0-t) at 24 h [27]: 794 ng·h/mL; remaining at 2 h [28]: 102%
3 | O=C1O[C@@H](CO)CN1c1ccc(-c2ccc(/C=N/N3CCCCC3)nc2)c(F)c1 | 11.6 | 0.028 | 1.34 | 2.72 | 2.5 | 9.94 (≈ 3.96 µg/mL) | 111 | 1.23 | 120 | 0.03 (≈ 0.0753 µM) | 67.4 | 51.1 | 0.03 (≈ 0.0753 µM) | 13.1 | 59 | 1.31 | 0.858 | 105 | 7170 | 1400 | Papp A→B [8]: 11.1 ×10⁻⁶ cm/s; Ratio [10]: 1.5; Activity (Staphylococcus aureus [31]): inactive; MIC (Staphylococcus aureus [22]): 0.03 µg/mL (≈ 0.0753 µM); Stability ([23]; 1 h): 124%; microsomal CLint [26]: 11.8 µL/min/mg; AUC(0-t) at 24 h [27]: 1190 ng·h/mL; Stability ([28]; microsomes, 2 h): 71.7%
4 | O=C1O[C@@H](CO)CN1c1ccc(-c2ccc(/C=N/N3CCS(=O)(=O)CC3)nc2)c(F)c1 | 14.7 | 0.284 | 9.68 | 4.28 | 32.5 | 20 (≈ 8.97 µg/mL) | 102 | 0.72 |  | 0.25 (≈ 0.557 µM) | 97 | 19.8 | 0.25 (≈ 0.557 µM) |  | 98.8 |  | > 30 | 103 | 2120 | 1120 | Stability ([12]; 1 h): 144%; CLH ([18]; microsomes, 2 h): 0.804 µL/min/mg; MIC (Staphylococcus aureus [22]): 0.25 µg/mL (≈ 0.557 µM); remaining at 1 h [23]: 113%; microsomal CLint [26]: 1.51 µL/min/mg; remaining at 2 h [28]: 98.7%
5 | CC(C)N/N=C/c1ccc(-c2ccc(N3C[C@H](CO)OC3=O)cc2F)cn1 | 10.3 | 0.115 | 1.68 | 1.94 |  | 30.2 (≈ 11.2 µg/mL) | 80.2 | 0.98 | 108 | 0.06 (≈ 0.161 µM) | 76.7 | 65.8 | 0.03 (≈ 0.0806 µM) | 8.78 | 66 | 0.42 | 11 | 106 | 10100 | 1580 | beta t1/2 ([5]; microsomes, 2 h): 1.26 h; half-life [17]: 3.3 h; remaining at 1.5 h [32]: 90.8%; MIC (Staphylococcus aureus [22]): 0.03 µg/mL (≈ 0.0806 µM); remaining at 1 h [23]: 111%; microsomal CLint [26]: 5.78 µL/min/mg; AUC(0-t) at 24 h [27]: 475 ng·h/mL; remaining at 2 h [28]: 85.8%
